According to patent US11118160B2, “Probiotic composition for enhancing an insects resistance to a pesticide” (The Regents of the University of California, priority 2017, dated 2021):

Assays:
Drosophila melanogaster [1] = assay: Fly behavioral phenotype after pesticide exposure; assay type: in vivo; settings: exposed flies
From the text: 1D) Automated behavioral screening in 2D population cages with social affinity, aggression, and mating behavioral quantitative phenotypes. These are ideal because they integrate many aspects of the perturbed animal system, and will allow one skilled in the art to identify subtle neurological phenotypes may be missed by other modalities.
Fly behavioral studies: A 2D cage design with CCD video and fly tracking software is utilized widely by the community (19270697). This techniques enables the automated quantification of social affinity, aggression, and mating behavioral phenotypes.

Drosophila melanogaster [2] = assay: Survival of wild-type and gnotobiotic / germ free flies exposed to atrazine (FIGS. 5-6); assay type: in vivo
Protocol: (§1) The immediate and long-term responses of the gut microbiome to the top ten most utilized herbicides in the United States are measured using the model organism Drosophila melanogaster. By utilizing both gnotobiotic and wild-type flies in these perturbations, effects specifically due to the microbiome are isolated. Based on the results of the fly model, compounds are tested in mice in pre-adolescent exposure scenarios and long-term effects. As in the fly, genomic and metabolomics techniques are used. Detailed, life course assays throughout 12-week span would provide an extensive map of the dynamic composition of mammalian gut microbiomes. Identification of microbiome chemical and genetic interactions are obtained by utilizing the collaborative cross mice and also specified microbial compositions. Pesticide-induced changes in behavior are correlated with changes in the microbiome, while controlling for genetic background.
Axenic adult flies are generated and exposures are recapitulated. […] Further, GF flies are fully rescued and wild-type survival curves are restored by feeding flies the bacterial culture prior to exposure. Similar rescue experiments with other microbes are attempted, none of which are rescued.

Drosophila melanogaster [3] = assay: Host genome-wide transcription response to chronic pesticide exposure (FIGS. 4-5); assay type: in vivo; settings: 2 mM atrazine
From the text: 1C) 16S-seq and microarray of microbiome before and after perturbation to quantify all microbial species and their transcriptomes. For treatments with strong effects, sequence the fly gut transcriptome (RNA-seq) to determine gene networks and pathways affected by exposure.

[4] = test system: Acetobacter in the insect gut; assay: Remodeling of the gut microbiome in response to pesticide exposure (FIG. 1); assay type: in vivo, Drosophila melanogaster; settings: exposure of flies
Protocol: as §1
AIM 1 Screen 20 most commonly used agricultural pesticides in the United States. Determine which pesticides impact microbiome composition in adult flies, leveraging the viability of germ-free animals and rapid life cycle. Measure the immediate (2 hrs) and long-term (10 days) responses of the microbiome to exposure using methods described below.
1C) 16S-seq and microarray of microbiome before and after perturbation to quantify all microbial species and their transcriptomes. […]

SMILES | behavioral phenotype induced (Drosophila melanogaster [1]) | survival of exposed germ free (GF) flies vs control flies with wild-type microbiomes (Drosophila melanogaster [2]; axenic adult flies) | lethality to the host (Drosophila melanogaster [2]; flies, extremely high doses) | susceptibility to toxicity, gnotobiotic flies lacking the atrazine metabolism pathway vs wild-type strains (Drosophila melanogaster [2]; gnotobiotic flies vs wild-type strains having the pathway) | host response to exposure (transcription) (Drosophila melanogaster [3]) | effect on Acetobacter in the insect gut [4]
CCNc1nc(Cl)nc(NC(C)C)n1 [Atrazine, atrazine] | induces a hyperactive phenotype | die earlier than control flies | not deadly at extremely high doses | significantly more susceptible to toxicity | induces an adaptive response associated largely with the transport of lipids | induce the collapse of Acetobacter
C[n+]1ccc(-c2cc[n+](C)cc2)cc1 [Paraquat, paraquat] |  |  |  |  |  | induce the collapse of Acetobacter
